Data taken from article PMC7177633, “Effective Cellular Transport of Ortho-Halogenated Sulfonamide Derivatives of Metformin Is Related to Improved Antiproliferative Activity and Apoptosis Induction in MCF-7 Cells” (International Journal of Molecular Sciences, 2020).
Values joined by “and” are separate entries in the source; they are usually repeats but may differ in a detail not shown here. Identical values can stand only once. Like-named read-outs stand apart in the source and are kept apart here.

Tests used:
MCF-7 cells [1] = assay: Uptake in the presence of OCT and MATE inhibitors, MCF-7 cells; type: in vitro ADME, human; conditions: for interactions with OCT, PMAT and MATE1 transporters, MCF-7: summary from uptake with inhibitors
Experimental: (§1) The uptake of sulfonamide derivatives of metformin (1–9) in MCF-7 and MDA-MB-231 cells was studied also in the presence of disopyramide, cimetidine (OCT1 and 3 inhibitors), lopinavir (OCT and PMAT inhibitor) and methenamine (MATE and OCT2 inhibitors). The cells were incubated (37 °C, 10 min) with compounds 1–9 at concentrations of 400 and 800 μmol/L and inhibitors (disopyramide, cimetidine, lopinavir or methenamine) in 250 μL of prewarmed HBSS buffer. The protocol of determination of the compound concentration was as described above.

MDA-MB-231 cells [2] = assay: Cellular uptake of metformin sulfonamides in MDA-MB-231 cells (HPLC); type: in vitro ADME, human; conditions: for Vmax, transporter I, MDA-MB-231 / Km / Vmax, transporter II, MDA-MB-231: Eadie-Hofstee analysis; for uptake into MDA-MB-231 cells: 800 μmol/L, 10 min incubation, 37 °C
Experimental: (§2) The uptake of metformin sulfonamides (1–9) in MCF-7 and MDA-MB-231 cells was studied by incubation of the cells with 10−3000 μmol/L of compounds in 250 μL of prewarmed HBSS buffer at 37 °C for 10 min. Subsequently, the cells were then washed three times with 500 μL of ice-cold HBSS and lysed with 250 μL of 0.1-M NaOH. The samples were collected, centrifuged (5 min, 1400 rpm) and the supernatants were analyzed by the HPLC method. The concentration of each compound in the cells was calculated on the basis of the standard curve prepared by spiking known amounts of every compound on the cell layers in 250 μL of 0.1-M NaOH.
(§3) The concentration of the studied sulfonamides (1–9) was assessed using the HPLC system, consisting of an Agilent 1100 binary pump (Agilent Technologies Inc., Wilmington, DE, USA), an 1100 micro-vacuum degasser, an HP 1050 autosampler and an HP 1050 variable wavelength detector (operated at 235 nm). The chromatographic separations of compounds 1–9 were conducted on an Agilent Zorbax SB-C18 analytical column (4.6 mm × 150 mm, 5 μm) using an isocratic elution of water containing 0.1% formic acid (pH ca. 3.0) and acetonitrile containing 0.1% formic acid with a changing ratio, depending on the compound. The analyses were conducted at room temperature (RT). The detailed procedure of chromatographic analysis was described in our previous paper. The studies were conducted in quadruplicates.
(§4) The protein concentrations in representative wells of each plate were assessed using a Bio-Rad protein assay according to the Bradford method (EnVision, PerkinElmer, Inc., Waltham, MA, USA).

MCF-7 cells [3] = assay: Cellular uptake of metformin sulfonamides in MCF-7 cells (HPLC); type: in vitro ADME, human; conditions: for uptake into MCF-7 cells: 800 μmol/L, 10 min incubation, 37 °C
Experimental: as §2, §3, §4

MDA-MB-231 cells [4] = assay: Uptake in the presence of OCT and MATE inhibitors, MDA-MB-231 cells; type: in vitro ADME, human; conditions: for interactions with OCT, PMAT and MATE1 transporters, MDA-MB-231: summary from uptake with inhibitors
Experimental: as §1

OCTs [5] = assay: Inhibition of [14C]choline uptake in MDA-MB-231 cells (competitive inhibition assay); type: cell-based, human; conditions: mean ± SD (n = 3)
Experimental: (§5) The following day, after removal of the culture medium, the cells were carefully washed with prewarmed HBSS (Hanks’ balanced salt solution) containing 125 mM NaCl, 4.8 mM KCl, 1.2 mM MgSO4, 1.2 mM KH2PO4, 1.3 mM CaCl2, 5.6 mM glucose and 25 mM HEPES (pH 7.4). […] Then, the cells were washed three times with ice-cold HBSS (500 μL) and were lysed with 250 μL of 0.1-M NaOH in the ice bath, and the lysate was mixed with 1.0 mL of an emulsifier safe cocktail (PerkinElmer, Waltham, MA, USA). The radioactivity was measured by liquid scintillation counting (MicroBeta^2 counter, PerkinElmer, Waltham, MA, USA). The studies were carried out with the use of at least three replicates from the same cell passage.

MDA-MB-231 cells [6] = assay: Cell viability WST-1 assay, MDA-MB-231; type: cell-based; conditions: Homo sapiens, WST-1, 24 h; for viability at 3000 µM: MDA-MB-231, 24 h, 3000 µmol/L, read-out: percentage of viability of MDA-MB-231 cells
Experimental: (§6) The viability of MCF-7 and MDA-MB-231 cells was determined using a colorimetric WST-1 assay (Takara, Takara Bio Europe, Saint-Germain-en-Laye, France). Both cell lines were seeded at a density of 1 × 10^4 per well on 96-well plates and were cultured for 24 h to obtain 70% confluence. The following day, the cells were treated with various concentrations of compounds 1–9 diluted in the cell culture medium ([…]). The cells were incubated with tested compounds or pure medium (control) for 24 h (37 °C, 5% CO2). Afterwards, the cells were washed with 100 μL of culture medium, and then, the reagent dissolved in the medium was added (100 μL). The plates were incubated at the standard condition for 1.5 h, and the absorbance was read at 450 nm using a microplate reader (iMARK, Bio-Rad, Bio-Rad Laboratories Inc., Hercules, CA, USA). […] The results of samples treated with the test compounds were expressed as a percentage of the control samples. The data were presented as mean ± standard deviation (SD), n = 8. IC50 values (the concentration of the tested compound that inhibited cell growth by 50%) were calculated using a concentration-response curve (GraphPad Prism, Software, San Diego, CA, USA).
(§7) The concentrations contributing to the 50% of cell growth inhibition (IC50) were calculated using nonlinear regression analysis (fitting the curve to log (concentration) vs. cellular response).

MCF-7 cells [7] = assay: Cell viability WST-1 assay, MCF-7; type: cell-based; conditions: Homo sapiens, MCF7; WST-1, 24 h, mean ± SD (n = 6–8); read-out: IC50 inhibition of MCF-7 cells' viability
Experimental: as §6, §7

OCTs [8] = assay: Inhibition of [14C]choline uptake in MCF-7 cells (competitive inhibition assay); type: cell-based, human; conditions: mean ± SD (n = 3)
Experimental: as §5

AoSMC = tested on: AoSMC; set-up: method as in PMID 31776031; conditions: concentration range 10–3000 µmol/L; read-out: IC50 viability of AoSMCs; cited from earlier work
HUVECs = tested on: HUVECs; set-up: method as in PMID 31776031; conditions: concentration range 10–3000 µmol/L; read-out: IC50 viability of HUVECs; cited from earlier work
[9] = compound and inhibitor 400 and 800 µmol/L, 10 min, 37 °C
[10] = transporter I, read-out: Km, transporter I, MDA-MB-231
[11] = transporter II, read-out: Km, transporter II, MDA-MB-231
[12] = Eadie-Hofstee analysis, transporter I
[13] = Eadie-Hofstee analysis, transporter I, read-out: Km, transporter I, MCF-7
[14] = Eadie-Hofstee analysis, transporter II
[15] = Eadie-Hofstee analysis, transporter II, read-out: Km, transporter II, MCF-7
[16] = Michaelis-Menten curve, read-out: Km MCF-7 (Michaelis Menten curves)

SMILES	uptake in the presence of disopyramide, MCF-7 (MCF-7 cells [1]; [9])	uptake in the presence of lopinavir, MCF-7 (MCF-7 cells [1]; [9])	uptake in the presence of methenamine, MCF-7 (MCF-7 cells [1]; [9])	interactions with OCT, PMAT and MATE1 transporters, MCF-7 (MCF-7 cells [1])	Vmax, transporter I, MDA-MB-231 (MDA-MB-231 cells [2]; transporter I)	Km (MDA-MB-231 cells [2]; [10])	Vmax, transporter II, MDA-MB-231 (MDA-MB-231 cells [2]; transporter II)	Km (MDA-MB-231 cells [2]; [11])	Vmax, transporter I, MCF-7 (MCF-7 cells [3]; [12])	Km (MCF-7 cells [3]; [13])	Vmax, transporter II, MCF-7 (MCF-7 cells [3]; [14])	Km (MCF-7 cells [3]; [15])	Vmax MCF-7 (Michaelis Menten curves) (MCF-7 cells [3]; Michaelis-Menten curve)	Km (MCF-7 cells [3]; [16])	interactions with OCT, PMAT and MATE1 transporters, MDA-MB-231 (MDA-MB-231 cells [4])	IC50 (OCTs [5])	viability at 3000 µM (MDA-MB-231 cells [6])	IC50 (MCF-7 cells [7])	IC50 (OCTs [8])	uptake into MDA-MB-231 cells (MDA-MB-231 cells [2])	further results
CN(C)C(=N)N=C(N)NS(=O)(=O)c1cccc(Br)c1 [Compound 5]	significantly reduced	increased	increased	OCT1, MATE1, PMAT	0.038 ± 0.004 nmol/min/mg	468 ± 109 µM	0.098 ± 0.011 nmol/min/mg	1070 ± 204 µM	1.635 ± 0.21 nmol/min/mg	3620 ± 619 µM	2.167 ± 0.196 nmol/min/mg	6850 ± 713 µM	1.87 ± 0.95 nmol/min/mg	4940 ± 1340 µM	OCT1, OCT3	0.593 ± 0.015 mM	~60%	0.106 ± 0.0123 mM	0.888 ± 0.0114 mM		
CN(C)C(=N)N=C(N)NS(=O)(=O)c1ccc(F)cc1 [Compound 9]				PMAT	0.097 ± 0.015 nmol/min/mg	1880 ± 429 µM	0.053 ± 0.012 nmol/min/mg	2220 ± 618 µM							OCT1, OCT3	1.38 ± 0.014 mM	~60%	0.422 ± 0.0328 mM	1.057 ± 0.0075 mM	0.021 ± 0.002 nmol/min/mg protein	uptake into MCF-7 cells (MCF-7 cells [3]): 0.357 ± 0.112 nmol/min/mg protein
CN(C)C(=N)N=C(N)NS(=O)(=O)c1ccc(Cl)cc1 [Compound 3]	did not change	did not change	significant decrease	OCT1,MATE1	1.390 ± 0.23 nmol/min/mg	2370 ± 480 µM	2.20 ± 0.41 nmol/min/mg	4670 ± 932 µM	1.61 nmol/min/mg and 1.614 ± 0.11 nmol/min/mg	813 ± 86.5 µM	10.76 ± 0.88 nmol/min/mg	8810 ± 791 µM	5.073 ± 1.96 nmol/min/mg	3580 ± 1710 µM	OCT1, PMAT, MATE1	3.76 ± 0.124 mM		1.43 ± 0.135 mM		0.42 ± 0.15 nmol/min/mg protein	uptake in the presence of cimetidine, MCF-7 (MCF-7 cells [1]; [9]): did not change; transport efficacy (Vmax/Km) in MCF-7 relative to MDA-MB-231 (MDA-MB-231 cells [2]; fold lower in MDA-MB-231 than in MCF-7): 2.4–3.2 fold; uptake into MCF-7 cells (MCF-7 cells [3]): 0.84 ± 0.06 nmol/min/mg protein; uptake in the presence of disopyramide, MDA-MB-231 (MDA-MB-231 cells [4]; [9]): significantly lower uptake; uptake in the presence of lopinavir, MDA-MB-231 (MDA-MB-231 cells [4]; [9]): increased uptake; uptake in the presence of methenamine, MDA-MB-231 (MDA-MB-231 cells [4]; [9]): increased uptake; IC50 (AoSMC): 1.89 ± 0.11 mM; IC50 (MDA-MB-231 cells [6]; MDA-MB-231, mean ± SD (n = 6–8), read-out: IC50 inhibition of MDA-MB-231 cells' viability): 1.04 ± 0.134 mM; IC50 (HUVECs): 1.77 ± 0.12 mM
